What was measured:
[1] = tested on: tubulin network of SGC-7901 cells; assay: Immunofluorescence of tubulin network; assay type: cell-based, human; settings: 2-fold IC50 (0.022 µM), 12 h
Description: CA-4 was employed as positive control in this experiment.
Figure 4 Effects of 6i on tubulin network of SGC-7901 cells by immunofluorenscence. […] The left and middle panels represent the tubulin assembly stained with DAPI and FITC and the right panel represents a merge of the corresponding left and middle panels.
The SGC-7901 cells were seeded at a density of 1 × 10^4 per well on a 24-well plate and grown for 24 h. […] Cells in the control group were treated with culture medium. The control and treated cells were fixed with 4% formaldehyde in PBS for 30 min at -20 °C, then washed twice with PBS and permeabilized with 0.1% (v/v) Triton X-100 in PBS for 5 min. Then, the cells were blocked with 3% bovine serum albumin (BSA) in PBS for 30 min. […] The cells were washed with PBS to remove unbound secondary antibody, nucleus was stained with 4,6-diamino-2-phenolindol dihydrochloride (DAPI) and then, immunofluorescence was detected using a fluorescence microscope (Olympus, Tokyo, Japan).
Immunostaining was carried out to detect microtubule associated tubulin protein after exposure to 6i and CA-4. […] The cells were washed with PBS to remove unbound secondary antibody, nucleus was stained with 4,6-diamino-2-phenolindol dihydrochloride (DAPI) and then, immunofluorescence was detected using a fluorescence microscope (Olympus, Tokyo, Japan).

[2] = tested on: gastric adenocarcinoma SGC-7901 cells; assay: MTT antiproliferative assay, SGC-7901; assay type: cell-based, human; settings: Homo sapiens, SGC-7901; MTT assay, 24 h exposure, triplicate; read-out: IC50 SGC-7901
Description: (§1) The SGC-7901, A549 and HT-1080 cell lines were purchased from the American Type Culture Collection (ATCC, Manassas, VA, USA). […] Briefly, approximately 3 × 10^4 cells were seeded in a 96-well plate. After 24 h of incubation at 37 °C, cells were exposed to compounds of differing concentrations for 24 h. After treatment, cells were washed with 1X PBS followed by addition of 100 µL of 0.05% MTT reagent to each well, followed by incubation for 4 h at 37 °C. After incubation, the supernatant from each well was carefully removed and the formazan crystals were dissolved in 100 µL of DMSO. The colour density was measured spectrophotometrically at 490 nm using a microplate reader (SpectraMax Plus384, Molecular Devices Corp., USA). The data were calculated and plotted as percent viability compared to control.
as §1

HCT116 = tested on: HCT116; parameters: method as in Org. Biomol. Chem. 2005, 3, 2657-2660; settings: ref Org. Biomol. Chem. 2005, 3, 2657-2660; cited from earlier work
[3] = target: colchicine-binding site on tubulin (Sus scrofa, UniProt P02554); assay: Competitive tubulin-binding assay (colchicine); settings: 5.0 µM colchicine; compound 1.6, 5.0, 15.0 µM
Description: To confirm whether these designed compounds could bind to the colchicine site on tubulin, compound 6i was investigated for its ability of competitive inhibition of colchicine binding[39],[40]. CA-4 and paclitaxel were used as a positive and a negative control, respectively.
Figure 6 Competitive binding of 6i to colchicine-binding site on tubulin.
For the colchicine competitive binding assay, tubulin was co-incubated with indicated concentrations of MPSP-001 and paclitaxel at 37 °C for 1 h. Then colchicine was added to a final concentration of 5 μmol L^−1. Fluorescence was determined using a Hitachi F-2500 spectrofluorometer (Tokyo, Japan) at the excitation wavelength of 365 nm and the emission wavelength of 435 nm. Blank values (buffer alone) as the background were subtracted from all samples. […] Paclitaxel, not binding in the colchicine site of tubulin, was added as a negative control. The experiments were repeated at least three times.
(5). Competitive tubulin-binding assay. For the colchicine competitive binding assay, tubulin was co-incubated with indicated concentrations of MPSP-001 and paclitaxel at 37 °C for 1 h. Then colchicine was added to a final concentration of 5 μmol L^−1. Fluorescence was determined using a Hitachi F-2500 spectrofluorometer (Tokyo, Japan) at the excitation wavelength of 365 nm and the emission wavelength of 435 nm. […]

SMILES	effect on microtubule/tubulin network [1]	IC50 [2] [nM]	IC50 (HCT116) [nM]	competition with colchicine: fluorescence of colchicine-tubulin complex [3]	melting point [°C]
COc1ccc(/C=C\c2cc(OC)c(OC)c(OC)c2)cc1O [CA-4, Combretastatin A-4, reference compound]	the tubulin network showed a disruption	11	16	fluorescence of a colchicine-tubulin complex was reduced	–
COc1cccc(-c2nnc3n2N=C(c2ccc(OC)c(N)c2)CS3)c1 [Compound 6i, 3-(3-Methoxyphenyl)-6-(3-amino-4-methoxyphenyl)-7H-[1,2,4]triazolo[3,4-b][1,3,4]thiadiazine]	the tubulin network showed a disruption	11	–	fluorescence of a colchicine-tubulin complex was reduced	138 to 140
